Results reported in US8987253B2, “Compound having activity of blocking NMDA receptor channel, and pharmaceutical agent using the same” (National University Corporation Chiba University, priority 2006, dated 2015).
Read-outs that look alike come from different tables or passages of the source.

Key:
NR1/NR2C = NR1/NR2C (Homo sapiens, UniProt Q05586+Q14957); test: Reactivity with NMDA receptor subtype NR1/NR2C expressed on Xenopus oocytes; type: cell-based; conditions: AQ444 0.1 to 30 μM, FIG. 2
Method: (§1) AQ444 was added to the perfusion solution to get a final concentration of 0.1 to 30 μM. […] Further, the intensities in channel blocking activity against the receptors were in the order of NR1/NR2A=NR1/NR2B=NR1/NR2D>>NR1/NR2C.

NR1/NR2D = NR1/NR2D (Homo sapiens, UniProt O15399+Q05586); test: Reactivity with NMDA receptor subtype NR1/NR2D expressed on Xenopus oocytes; type: cell-based; conditions: AQ444 0.1 to 30 μM, FIG. 2
Sequence of NR1/NR2D (O15399 28-1336, other chains not shown): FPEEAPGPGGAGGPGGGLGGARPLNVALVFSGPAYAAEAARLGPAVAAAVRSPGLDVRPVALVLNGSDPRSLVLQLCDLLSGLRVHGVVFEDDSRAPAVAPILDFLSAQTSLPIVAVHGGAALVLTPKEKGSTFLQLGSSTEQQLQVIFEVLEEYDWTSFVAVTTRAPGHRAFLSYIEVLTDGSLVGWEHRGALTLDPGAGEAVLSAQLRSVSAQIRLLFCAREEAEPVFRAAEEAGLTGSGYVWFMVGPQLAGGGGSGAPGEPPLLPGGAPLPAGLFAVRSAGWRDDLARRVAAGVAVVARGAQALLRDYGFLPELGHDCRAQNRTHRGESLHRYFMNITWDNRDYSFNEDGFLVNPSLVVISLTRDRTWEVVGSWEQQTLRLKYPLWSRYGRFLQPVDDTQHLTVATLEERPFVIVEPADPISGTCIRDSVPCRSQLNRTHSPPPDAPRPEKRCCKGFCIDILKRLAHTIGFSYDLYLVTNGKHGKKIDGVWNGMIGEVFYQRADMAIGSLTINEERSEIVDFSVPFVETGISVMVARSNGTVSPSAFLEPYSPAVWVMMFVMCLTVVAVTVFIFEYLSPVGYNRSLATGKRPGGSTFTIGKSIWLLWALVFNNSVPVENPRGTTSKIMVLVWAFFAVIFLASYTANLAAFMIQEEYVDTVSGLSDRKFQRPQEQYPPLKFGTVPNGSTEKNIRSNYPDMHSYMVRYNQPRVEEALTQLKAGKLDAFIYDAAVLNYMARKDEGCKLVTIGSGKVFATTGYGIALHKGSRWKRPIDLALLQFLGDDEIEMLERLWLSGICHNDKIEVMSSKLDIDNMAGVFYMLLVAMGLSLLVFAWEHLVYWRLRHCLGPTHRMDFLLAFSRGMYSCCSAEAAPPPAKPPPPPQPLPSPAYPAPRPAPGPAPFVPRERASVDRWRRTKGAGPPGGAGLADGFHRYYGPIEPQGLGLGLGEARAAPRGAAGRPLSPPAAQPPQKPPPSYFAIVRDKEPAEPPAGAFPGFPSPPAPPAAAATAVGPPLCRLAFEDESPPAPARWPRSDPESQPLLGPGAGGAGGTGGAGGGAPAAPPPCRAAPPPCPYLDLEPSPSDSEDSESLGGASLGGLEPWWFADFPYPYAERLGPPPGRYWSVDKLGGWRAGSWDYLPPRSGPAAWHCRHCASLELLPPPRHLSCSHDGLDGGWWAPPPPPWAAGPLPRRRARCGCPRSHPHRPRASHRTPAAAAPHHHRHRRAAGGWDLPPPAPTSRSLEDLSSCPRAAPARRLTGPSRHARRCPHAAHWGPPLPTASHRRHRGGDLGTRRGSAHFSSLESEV
Method: as §1

NR1/NR2A = NR1/NR2A (Homo sapiens, UniProt Q05586+Q12879); test: Channel blocking activity on NMDA receptors (NR1/NR2A) expressed on Xenopus oocytes, two electrode voltage clamp; conditions: for voltage dependence of channel blocking activity: membrane potential changed from −150 mV to +10 mV
Sequence of NR1/NR2A (Q12879 23-1464, other chains not shown): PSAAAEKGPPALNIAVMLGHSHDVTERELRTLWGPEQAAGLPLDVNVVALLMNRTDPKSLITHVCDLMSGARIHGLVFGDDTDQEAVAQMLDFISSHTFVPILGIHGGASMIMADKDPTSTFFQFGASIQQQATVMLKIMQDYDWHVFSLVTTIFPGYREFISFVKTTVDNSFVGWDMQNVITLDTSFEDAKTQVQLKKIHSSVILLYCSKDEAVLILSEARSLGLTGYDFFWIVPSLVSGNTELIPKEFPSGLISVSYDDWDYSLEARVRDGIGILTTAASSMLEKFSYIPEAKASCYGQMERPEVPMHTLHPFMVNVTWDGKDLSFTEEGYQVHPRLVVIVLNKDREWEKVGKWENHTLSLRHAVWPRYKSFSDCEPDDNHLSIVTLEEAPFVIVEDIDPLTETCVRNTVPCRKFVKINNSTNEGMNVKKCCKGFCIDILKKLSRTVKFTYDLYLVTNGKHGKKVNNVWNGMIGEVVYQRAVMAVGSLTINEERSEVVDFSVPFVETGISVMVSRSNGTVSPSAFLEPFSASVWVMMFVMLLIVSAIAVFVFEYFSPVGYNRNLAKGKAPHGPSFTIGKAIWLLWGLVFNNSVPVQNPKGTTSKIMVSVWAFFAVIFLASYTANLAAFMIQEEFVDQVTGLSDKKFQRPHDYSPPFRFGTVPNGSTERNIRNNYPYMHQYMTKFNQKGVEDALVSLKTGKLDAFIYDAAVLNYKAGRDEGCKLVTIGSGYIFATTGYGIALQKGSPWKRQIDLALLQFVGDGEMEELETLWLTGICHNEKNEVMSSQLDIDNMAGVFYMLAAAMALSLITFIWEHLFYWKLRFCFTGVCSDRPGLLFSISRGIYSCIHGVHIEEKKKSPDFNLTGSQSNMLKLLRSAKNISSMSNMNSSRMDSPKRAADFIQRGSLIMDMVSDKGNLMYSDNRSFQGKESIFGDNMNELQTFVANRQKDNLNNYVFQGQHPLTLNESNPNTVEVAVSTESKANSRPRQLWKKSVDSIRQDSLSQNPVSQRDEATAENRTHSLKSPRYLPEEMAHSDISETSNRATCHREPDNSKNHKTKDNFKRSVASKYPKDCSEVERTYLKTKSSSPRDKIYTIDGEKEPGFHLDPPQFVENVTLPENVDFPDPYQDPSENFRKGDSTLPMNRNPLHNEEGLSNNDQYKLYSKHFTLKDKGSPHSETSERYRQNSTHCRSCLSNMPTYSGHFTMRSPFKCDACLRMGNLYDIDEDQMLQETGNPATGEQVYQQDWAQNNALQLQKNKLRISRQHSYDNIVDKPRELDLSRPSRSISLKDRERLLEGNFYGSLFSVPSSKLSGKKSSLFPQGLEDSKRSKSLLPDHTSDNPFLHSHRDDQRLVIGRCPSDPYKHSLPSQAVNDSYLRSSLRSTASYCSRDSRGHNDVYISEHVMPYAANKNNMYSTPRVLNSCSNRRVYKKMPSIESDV

NR1 mutant N616R = test: Channel blocking activity on NMDA receptor mutant NR1 N616R expressed in eggs; type: cell-based; conditions: FIG. 3
Excerpt: (§2) Site-directed mutagenesis was utilized to construct NMDA receptor mutants with amino acid substitutions. The NMDA receptor mutants were expressed in eggs in the same method as shown in Example 1 to investigate for channel blocking activity of AQ444. […] Other relevant amino acid residues on the NMDA receptors are shown in FIG. 4 together with their models.

NR2B mutant N615Q = NR2B mutant N615Q (Homo sapiens, UniProt Q05586+Q13224, N615Q); test: Channel blocking activity on NMDA receptor mutant NR2B N615Q expressed in eggs; type: cell-based; conditions: FIG. 3
Excerpt: as §2

NR1/NR2B = NR1/NR2B (Homo sapiens, UniProt Q05586+Q13224); test: Reactivity with NMDA receptor subtype NR1/NR2B expressed on Xenopus oocytes; type: cell-based; conditions: AQ444 0.1 to 30 μM, FIG. 2
Method: as §1

NR1 mutant N616Q = test: Channel blocking activity on NMDA receptor mutant NR1 N616Q expressed in eggs; type: cell-based; conditions: FIG. 3
Excerpt: as §2

NR2B mutant N616Q = NR2B mutant N616Q (Homo sapiens, UniProt Q05586+Q13224, N616Q); test: Channel blocking activity on NMDA receptor mutant NR2B N616Q expressed in eggs; type: cell-based; conditions: FIG. 3
Excerpt: as §2

Cytotoxicity = type: cell-based
[1] = read-out: 50% inhibition concentration (IC50) of channel blocking activity, membrane potential clamp at −70 mV, 10 μM glycine and 10 μM glutamic acid, Xenopus oocytes

Sequence of NR1/NR2C (Q14957 20-1233, other chains not shown): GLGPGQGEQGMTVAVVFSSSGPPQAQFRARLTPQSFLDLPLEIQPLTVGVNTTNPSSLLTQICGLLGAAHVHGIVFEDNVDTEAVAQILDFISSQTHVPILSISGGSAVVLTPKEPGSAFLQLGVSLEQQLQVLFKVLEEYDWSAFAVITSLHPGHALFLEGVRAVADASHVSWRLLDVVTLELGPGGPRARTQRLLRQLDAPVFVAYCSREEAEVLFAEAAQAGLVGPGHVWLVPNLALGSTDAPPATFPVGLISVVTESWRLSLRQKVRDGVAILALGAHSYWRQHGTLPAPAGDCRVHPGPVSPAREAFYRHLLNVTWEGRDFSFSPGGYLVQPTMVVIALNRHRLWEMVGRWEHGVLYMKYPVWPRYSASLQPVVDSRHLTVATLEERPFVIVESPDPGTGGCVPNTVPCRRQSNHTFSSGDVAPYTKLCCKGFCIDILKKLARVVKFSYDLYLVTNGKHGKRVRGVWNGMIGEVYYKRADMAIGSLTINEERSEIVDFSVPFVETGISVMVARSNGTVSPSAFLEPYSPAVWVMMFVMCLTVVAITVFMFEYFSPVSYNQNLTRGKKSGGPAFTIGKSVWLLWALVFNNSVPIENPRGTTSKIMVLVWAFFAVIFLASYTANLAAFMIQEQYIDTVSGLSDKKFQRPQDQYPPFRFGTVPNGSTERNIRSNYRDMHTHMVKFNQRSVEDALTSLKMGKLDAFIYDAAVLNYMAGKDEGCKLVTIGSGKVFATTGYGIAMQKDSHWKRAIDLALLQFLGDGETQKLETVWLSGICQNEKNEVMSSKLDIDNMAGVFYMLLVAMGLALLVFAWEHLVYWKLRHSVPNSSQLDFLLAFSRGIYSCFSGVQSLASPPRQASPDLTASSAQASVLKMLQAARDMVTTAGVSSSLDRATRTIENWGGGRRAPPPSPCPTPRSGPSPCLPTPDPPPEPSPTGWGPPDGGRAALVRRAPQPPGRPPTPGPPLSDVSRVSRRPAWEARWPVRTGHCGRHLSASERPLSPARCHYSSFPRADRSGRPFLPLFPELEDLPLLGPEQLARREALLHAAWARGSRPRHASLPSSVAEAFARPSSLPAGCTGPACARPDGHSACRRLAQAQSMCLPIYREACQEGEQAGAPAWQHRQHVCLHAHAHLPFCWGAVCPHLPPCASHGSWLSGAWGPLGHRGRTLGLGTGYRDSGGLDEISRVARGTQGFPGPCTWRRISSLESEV

Row | Structure (SMILES) | IC50 (NR1/NR2A) [µM] | voltage dependence of channel blocking activity (NR1/NR2A) | IC50 (NR1/NR2A; [1]) [µM] | IC50 (Cytotoxicity) [µM] | also measured
1 | NCCCCNCCCCNCCCCNC(=O)N1c2ccccc2C=Cc2ccccc21 [DBA444, Dibenzoazepine Homospermine] | – | in a voltage-dependent manner | 0.24 | 132 | –
2 | NCCCNCCCCNCCCNC(=O)n1c2ccccc2c2ccccc21 [carbazole spermine, Carbazole Spermine] | 15 | – | – | – | –
3 | CC12CC3CC(C)(C1)CC(N)(C3)C2 [memantine, reference compound] | – | – | – | 147 | –

Continued, in another order:

Row | IC50 (NR1/NR2A) [µM] | voltage dependence of channel blocking activity (NR1/NR2A) | IC50 (NR1/NR2A; [1]) [µM] | Structure (SMILES) | IC50 (Cytotoxicity) [µM] | also measured
4 | 0.47 | showed voltage dependence | – | NCCCCNCCCCNCCCCNC(=O)c1ccc2c(c1)C(=O)c1ccccc1C2=O [AQ444, Anthraquinone Homospermine] | – | order of intensity in channel blocking activity among subtypes (NR1/NR2C): NR1/NR2A=NR1/NR2B=NR1/NR2D>>NR1/NR2C; order of intensity in channel blocking activity among subtypes (NR1/NR2D): NR1/NR2A=NR1/NR2B=NR1/NR2D>>NR1/NR2C; order of intensity in channel blocking activity among subtypes (NR1/NR2A; NR1/NR2A, AQ444 0.1 to 30 μM, FIG. 2): NR1/NR2A=NR1/NR2B=NR1/NR2D>>NR1/NR2C; channel blocking activity on mutant (NR1 mutant N616R): significantly decreased channel blocking activity; channel blocking activity on mutant (NR2B mutant N615Q): significantly decreased channel blocking activity; order of intensity in channel blocking activity among subtypes (NR1/NR2B): NR1/NR2A=NR1/NR2B=NR1/NR2D>>NR1/NR2C; channel blocking activity on mutant (NR1 mutant N616Q): significantly decreased channel blocking activity; channel blocking activity on mutant (NR2B mutant N616Q): significantly decreased channel blocking activity
5 | – | in a voltage-dependent manner | 0.072 | NCCCCNCCCCNCCCCNC(=O)N1c2ccccc2CCc2ccccc21 [DDBA444, Dihydrodibenzoazepine Homospermine] | 133 | –
